Experimental findings from patent US9169254B2, “Spiroimidazolone derivative” (Chugai Seiyaku Kabushiki Kaisha, priority 2009, dated 2015) are described below.

In the first test the target is T1, human PTH1 receptor (Homo sapiens, UniProt Q03431).
T1 sequence (Q03431 27-593): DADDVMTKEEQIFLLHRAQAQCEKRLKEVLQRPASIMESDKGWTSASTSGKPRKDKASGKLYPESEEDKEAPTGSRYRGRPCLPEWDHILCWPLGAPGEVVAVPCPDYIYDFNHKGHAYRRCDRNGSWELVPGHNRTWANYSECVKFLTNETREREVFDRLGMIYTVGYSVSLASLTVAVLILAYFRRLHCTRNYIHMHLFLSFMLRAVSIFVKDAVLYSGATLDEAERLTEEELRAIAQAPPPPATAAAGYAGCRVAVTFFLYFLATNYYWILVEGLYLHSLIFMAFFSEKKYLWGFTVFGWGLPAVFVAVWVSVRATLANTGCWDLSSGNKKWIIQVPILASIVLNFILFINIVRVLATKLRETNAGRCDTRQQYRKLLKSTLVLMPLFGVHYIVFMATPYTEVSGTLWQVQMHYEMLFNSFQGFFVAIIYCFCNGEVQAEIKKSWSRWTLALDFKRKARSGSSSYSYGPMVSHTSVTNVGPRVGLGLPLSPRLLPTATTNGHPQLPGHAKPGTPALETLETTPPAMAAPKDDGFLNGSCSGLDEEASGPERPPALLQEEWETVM
Briefly: In vitro cAMP signal activity in HKRK-B7 cells (LLC-PK1 cells overexpressing the human PTH1 receptor). It is filed as cell-based. As to conditions: HKRK-B7 cells; compound at 1×10^−3 M; cAMP produced as percentage of that produced by hPTH(1-34) at 100 nM.
Consider `Cc1cc(C(=O)N(C)N(C)C)cc(C)c1/C=C/S(=O)(=O)N1CCC2(CC1)N=C(C1CCC(CCC(F)(F)F)CC1)NC2=O` (stereo not drawn) [Compound 629, 3,5-Dimethyl-4-((E)-2-{4-oxo-2-[4-(3,3,3-trifluoro-propyl)-cyclohexyl]-1,3,8-triaza-spiro[4.5]dec-1-ene-8-sulfonyl}-vinyl)-benzoic acid trimethylhydrazide], for which the “cAMP production activity (%)” value is given as 87%.

Consider `Cc1cc(N2CCOCC2=O)ccc1/C=C/S(=O)(=O)N1CCC2(CC1)N=C(c1cccc(OC(F)(F)F)c1)NC2=O` [Compound 617, 8-{(E)-2-[2-methyl-4-(3-oxo-morpholin-4-yl)-phenyl]-ethenesulfonyl}-2-(3-trifluoromethoxy-phenyl)-1,3,8-triaza-spiro[4.5]dec-1-en-4-one], for which the “cAMP production activity (%)” value worked out at 96%.

Take `Cc1cc(C(=O)N2CC[C@@H](F)C2)cc(C)c1/C=C/S(=O)(=O)N1CCC2(CC1)N=C(c1cccc(OC(F)(F)F)c1)NC2=O` [Compound 959, 8-{(E)-2-[4-((R)-3-Fluoro-pyrrolidine-1-carbonyl)-2,6-dimethyl-phenyl]-ethenesulfonyl}-2-(3-trifluoromethoxy-phenyl)-1,3,8-triaza-spiro[4.5]dec-1-en-4-one]: the “cAMP production activity (%)” value is recorded as 77%.

As to `Cc1cc(C(=O)N(C)C)ccc1CCS(=O)(=O)N1CCC2(CC1)N=C(C#Cc1ccccc1)NC2=O` [Compound 893, 3,N,N-trimethyl-4-[2-(4-oxo-2-phenylethynyl-1,3,8-triaza-spiro[4.5]dec-1-ene-8-sulfonyl)-ethyl]-benzamide], the “cAMP production activity (%)” value is given as 14%.

For `Cc1cc(N(C)C(N)=O)cc(C)c1/C=C/S(=O)(=O)N1CCC2(CC1)N=C(c1cccc(OC(F)(F)F)c1)NC2=O` [Compound 1015, 1-(3,5-dimethyl-4-{(E)-2-[4-oxo-2-(3-trifluoromethoxy-phenyl)-1,3,8-triaza-spiro[4.5]dec-1-ene-8-sulfonyl]-vinyl}-phenyl)-1-methyl-urea], the “cAMP production activity (%)” value worked out at 83%.

For `CCOC(=O)CCCCCCCCCCCC1=NC2(CCN(S(=O)(=O)/C=C/c3c(C)cc(N(C)C(N)=O)cc3C)CC2)C(=O)N1` [Compound 1132, 12-(8-{(E)-2-[2,6-dimethyl-4-(1-methyl-ureido)-phenyl]-ethenesulfonyl}-4-oxo-1,3,8-triaza-spiro[4.5]dec-1-en-2-yl)-dodecanoic acid ethyl ester], the “cAMP production activity (%)” value was determined as 80%.

Take `Cc1cc(C(=O)N2CCC(C)(O)CC2)cc(C)c1/C=C/S(=O)(=O)N1CCC2(CC1)N=C(c1ccc(C(F)(F)F)c(OCC(F)(F)C(F)F)c1)NC2=O` [Compound 1223, 8-{(E)-2-[4-(4-hydroxy-4-methyl-piperidine-1-carbonyl)-2,6-dimethyl-phenyl]-ethenesulfonyl}-2-[3-(2,2,3,3-tetrafluoro-propoxy)-4-trifluoromethyl-phenyl]-1,3,8-triaza-spiro[4.5]dec-1-en-4-one]: the “cAMP production activity (%)” value was 54%.

For `O=C1NC(C2CCCCC2)=NC12CCN(S(=O)(=O)CCc1cccc3ncccc13)CC2` [Compound 648, 2-cyclohexyl-8-(2-quinolin-5-yl-ethanesulfonyl)-1,3,8-triaza-spiro[4.5]dec-1-en-4-one], the “cAMP production activity (%)” value turned out to be 61%.

In the case of `CN1CCCc2c(/C=C/S(=O)(=O)N3CCC4(CC3)N=C(C3CCCCC3)NC4=O)cccc21` [Compound 638, 2-cyclohexyl-8-[(E)-2-(1-methyl-1,2,3,4-tetrahydro-quinolin-5-yl)-ethenesulfonyl]-1,3,8-triaza-spiro[4.5]dec-1-en-4-one], the “cAMP production activity (%)” value was 46%.

Consider `O=C1NC(c2cccc(C(F)(F)F)c2)=NC12CCN(S(=O)(=O)c1cc3ccccc3s1)CC2` [Compound 68, 8-(benzo[b]thiophene-2-sulfonyl)-2-(3-trifluoromethyl-phenyl)-1,3,8-triaza-spiro[4.5]dec-1-en-4-one], for which the “cAMP production activity (%)” value turned out to be 51%.

`Cc1cc(N(CCO)C(=O)C(C)C)ccc1CCS(=O)(=O)N1CCC2(CC1)N=C(c1cccc(OC(F)(F)F)c1)NC2=O` [Compound 929, N-(2-Hydroxy-ethyl)-N-(3-methyl-4-{2-[4-oxo-2-(3-trifluoromethoxy-phenyl)-1,3,8-triaza-spiro[4.5]dec-1-ene-8-sulfonyl]-ethyl}-phenyl)-isobutylamide]: the “cAMP production activity (%)” value was found to be 76%.

Turning to `CCCCS(=O)(=O)N1CCC2(CC1)N=C(c1ccc(Cl)cc1Cl)NC2=O` [Compound 46, 8-(butane-1-sulfonyl)-2-(2,4-dichloro-phenyl)-1,3,8-triaza-spiro[4.5]dec-1-en-4-one], the “cAMP production activity (%)” value is on record as 17%.

Turning to `Cc1cc(N(C)C(N)=O)cc(C)c1/C=C/[S@TB4](=O)(=O)N1CCC2(CC1)N=C(CCCCCCCCCCCF)NC2=O` [Compound 1118, 1-(4-{(E)-2-[2-(11-fluoro-undecyl)-4-oxo-1,3,8-triaza-spiro[4.5]dec-1-ene-8-sulfonyl]-vinyl}-3,5-dimethyl-phenyl)-1-methyl-urea], the “cAMP production activity (%)” value is 79%.

`CCCCC1CCN(C2=NC3(CCN(S(=O)(=O)CCc4ccc(C(=O)N(C)C)cc4C)CC3)C(=O)N2)CC1` [Compound 1403, 4-{2-[2-(4-Butyl-piperidin-1-yl)-4-oxo-1,3,8-triaza-spiro[4.5]dec-1-ene-8-sulfonyl]-ethyl}-3,N,N-trimethyl-benzamide]: the “cAMP production activity (%)” value is given as 66%.

`Cc1c(CCS(=O)(=O)N2CCC3(CC2)N=C(c2cccc(OC(F)(F)F)c2)NC3=O)cccc1C(=O)N1CCOCC1` [Compound 411, 8-{2-[2-methyl-3-(morpholine-4-carbonyl)-phenyl]-ethanesulfonyl}-2-(3-trifluoromethoxy-phenyl)-1,3,8-triaza-spiro[4.5]dec-1-en-4-one]: the “cAMP production activity (%)” value is on record as 54%.

On to `Cc1cc(OC[C@H](O)CO)cc(C)c1CCS(=O)(=O)N1CCC2(CC1)N=C(c1ccc3c(c1)OC(F)(F)O3)NC2=O` [Compound 1330, 2-(2,2-difluoro-benzo[1,3]dioxol-5-yl)-8-{2-[4-((R)-2,3-dihydroxy-propoxy)-2,6-dimethyl-phenyl]-ethanesulfonyl}-1,3,8-triaza-spiro[4.5]dec-1-en-4-one], for which the “cAMP production activity (%)” value was found to be 9.2%.

Turning to `CCCCCC#CCCC1=NC2(CCN(S(=O)(=O)/C=C/c3c(C)cc(N(C)C(N)=O)cc3C)CC2)C(=O)N1` [Compound 1025, 1-{3,5-dimethyl-4-[(E)-2-(2-non-3-ynyl-4-oxo-1,3,8-triaza-spiro[4.5]dec-1-ene-8-sulfonyl)-vinyl]-phenyl}-1-methyl-urea], the “cAMP production activity (%)” value was 114%.

On to `Cc1cc(C(=O)N2CCC(CO)CC2)cc(C)c1CCS(=O)(=O)N1CCC2(CC1)N=C(c1cccc(OC(F)(F)F)c1)NC2=O` [Compound 966, 8-{2-[4-(4-hydroxymethyl-piperidine-1-carbonyl)-2,6-dimethyl-phenyl]-ethanesulfonyl}-2-(3-trifluoromethoxy-phenyl)-1,3,8-triaza-spiro[4.5]dec-1-en-4-one], for which the “cAMP production activity (%)” value turned out to be 82%.

For `Cc1cc(N(CCO)C(N)=O)cc(C)c1/C=C/S(=O)(=O)N1CCC2(CC1)N=C(c1cccc(OC(F)(F)F)c1)NC2=O` [Compound 605, 1-(3,5-dimethyl-4-{(E)-2-[4-oxo-2-(3-trifluoromethoxy-phenyl)-1,3,8-triaza-spiro[4.5]dec-1-ene-8-sulfonyl]-vinyl}-phenyl)-1-(2-hydroxy-ethyl)-urea], the “cAMP production activity (%)” value is listed as 54%.

As to `Cc1cc(C(=O)N2CCN(C(C)C)CC2)ccc1CCS(=O)(=O)N1CCC2(CC1)N=C(c1cccc(OC(F)(F)F)c1)NC2=O` [Compound 849, 8-{2-[4-(4-isopropyl-piperazine-1-carbonyl)-2-methyl-phenyl]-ethanesulfonyl}-2-(3-trifluoromethoxy-phenyl)-1,3,8-triaza-spiro[4.5]dec-1-en-4-one], the “cAMP production activity (%)” value worked out at 124%.

In the case of `O=C1NC(c2ccc(Cl)cc2Cl)=NC12CCN(S(=O)(=O)c1cccc(Cl)c1)CC2` [Compound 50, 8-(3-chloro-benzenesulfonyl)-2-(2,4-dichloro-phenyl)-1,3,8-triaza-spiro[4.5]dec-1-en-4-one], the “cAMP production activity (%)” value is 26%.

In the case of `CN(C)C(=O)n1ccc2c(CCS(=O)(=O)N3CCC4(CC3)N=C(C3CCCCC3)NC4=O)cccc21` [Compound 310, 4-[2-(2-cyclohexyl-4-oxo-1,3,8-triaza-spiro[4.5]dec-1-ene-8-sulfonyl)-ethyl]-indole-1-carboxylic acid dimethylamide], the “cAMP production activity (%)” value is listed as 76%.

Regarding `Cc1cc(N2C(=O)CC[C@@H]2CNC(C)C)cc(C)c1/C=C/S(=O)(=O)N1CCC2(CC1)N=C(c1cccc(OC(F)(F)F)c1)NC2=O` [Compound 606, 8-((E)-2-{4-[(R)-2-(isopropylamino-methyl)-5-oxo-pyrrolidin-1-yl]-2,6-dimethyl-phenyl}-ethenesulfonyl)-2-(3-trifluoromethoxy-phenyl)-1,3,8-triaza-spiro[4.5]dec-1-en-4-one], the “cAMP production activity (%)” value is given as 28%.

Still in this test, the particulars now being: HKRK-B7 cells; compound at 1×10^−3 M; cAMP produced as percentage of that produced by hPTH(1-34) at 100 nM; 0.1 µM.
Take `C#C[C@H]1CC[C@@H](C2=NC3(CCN(S(=O)(=O)CCc4ccc(NC(C)=O)cc4C)CC3)C(=O)N2)CC1` [Compound 1074, N-(4-{2-[2-(4-ethynyl-cyclohexyl)-4-oxo-1,3,8-triaza-spiro[4.5]dec-1-ene-8-sulfonyl]-ethyl}-3-methyl-phenyl)-acetamide]: the “cAMP production activity (%)” value is reported as 66%.
